Measured values as given in publication PMC8515607 (ACS Omega, 2021).
Like-named read-outs stand apart in the source and are kept apart here.

How the values were obtained:
A549 [1] = experiment: cells; type: cell-based, human; details: for A549 SI: selectivity index = IC50 BALB/3T3 / IC50 A549
From the text: (§1) The A549 and MCF7 cell lines were purchased from the European Collection of Authenticated Cell Cultures (ECACC, Salisbury, U.K., 86012804 and 86012803). The LoVo cell line was purchased from the American Type Culture Collection (CCL-229, ATCC, Manassas, VA), and LoVo/DX by courtesy of Prof. E. Borowski (Technical University of Gdańsk, Gdańsk, Poland). The BALB/3T3 cell line was purchased from the American Type Culture Collection (CCL-163, ATCC, Manassas, VA). All of the cell lines are maintained in the Institute of Immunology and Experimental Therapy (IIET), Wroclaw, Poland.
(§2) A549 cells were cultured in a mixture of OptiMEM and Roswell Park Memorial Institute (RPMI) 1640 (1:1) medium (IIET, Wroclaw, Poland), supplemented with 10% fetal bovine serum HyClone (GE Healthcare) and 2 mM L-glutamine (Sigma-Aldrich, Germany). MCF7 cells were cultured in a mixture of Eagle’s medium (IIET, Wroclaw, Poland), supplemented with 10% fetal bovine serum, 2 mM L-glutamine, and insulin (Sigma-Aldrich, Germany). LoVo and LoVo/DX cells were cultured in F12K medium (Corning), supplemented with 10% fetal bovine serum HyClone (GE Healthcare) and 0.1 μg/mL doxorubicin (Accord) for LoVo/DX. BALB/3T3 fibroblasts were cultured in Dulbecco’s medium (Gibco), supplemented with 10% fetal bovine serum (GE Healthcare) and 2 mM L-glutamine (Sigma-Aldrich, Germany). All culture media contained antibiotics: 100 U/mL penicillin (Polfa-Tarchomin, Poland) and 0.1 mg/mL streptomycin (Sigma-Aldrich, Germany). All cell lines were cultured during entire experiment in humid atmosphere at 37 °C and 5% CO2.
(§3) All cell lines were exposed to each tested agent at different concentrations in the range 100–0.00001 μg/mL for 72 h. The cells were also exposed to the reference drug cisplatin (Teva Pharmaceuticals, Poland) and doxorubicin (Accord Healthcare Limited, U.K.). Additionally, all cell lines were exposed to dimethyl sulfoxide (DMSO) (solvent used for tested compounds) (POCh, Poland) at concentrations corresponding to those present in tested agents dilutions. After 72 h, sulforhodamine B (SRB) assay was performed.[57]
(§4) After 72 h of incubation with the tested compounds, the cells were fixed in situ by gently adding cold 50% trichloroacetic acid (TCA) (POCh, Poland) and were incubated at room temperature for 1 h. Then, the wells were washed four times with water and air-dried. Next, 0.1% solution of sulforhodamine B (Sigma-Aldrich, Germany) in 1% acetic acid (POCh, Poland) was added to each well and the plates were incubated at room temperature for 0.5 h. After incubation time, unbound dye was removed by washing plates four times with 1% acetic acid, whereas stain bound to cells was solubilized with 10 mM Tris base (Sigma-Aldrich, Germany). Absorbance of each solution was read at Synergy H4 Hybrid Multi-Mode Microplate Reader (BioTek Instruments) at the 540 nm wavelength.
(§5) IC50 values were calculated in Excel sheet using formulas adapted by Mateusz Psurski fromCheburator 0.4, Dmitry Nevozhay software (version 1.2.0 software by Dmitry Nevozhay, 2004–2014, http://www.cheburator.nevozhay.com, freely available) for each experiment.[58] Compounds at each concentration were tested in triplicate in a single experiment, and each experiment was repeated at least three times independently.

LoVo/DX = experiment: cells; type: cell-based, human; details: for LoVo/DX RI: resistance index = IC50 LoVo/DX / IC50 LoVo; for LoVo/DX SI: selectivity index = IC50 BALB/3T3 / IC50 LoVo/DX
From the text: as §1, §2, §3, §4, §5

LoVo [2] = experiment: cells; type: cell-based, human; details: for IC50: Homo sapiens, LoVo, 72 h, read-out: LoVo IC50 (nM); for LoVo SI: selectivity index = IC50 BALB/3T3 / IC50 LoVo
From the text: as §1, §2, §3, §4, §5

MCF-7 [3] = experiment: cells; type: cell-based, human; details: for IC50: Homo sapiens, MCF7, 72 h, read-out: MCF-7 IC50 (nM); for MCF-7 SI: selectivity index = IC50 BALB/3T3 / IC50 MCF-7
From the text: as §1, §2, §3, §4, §5

BALB/3T3 = experiment: In vitro antiproliferative activity, SRB assay, normal fibroblasts BALB/3T3; type: cell-based; details: Mus musculus, BALB/3T3, normal murine embryonic fibroblasts, 72 h, mean ± SD
From the text: as §1, §2, §3, §4, §5

[4] = test system: A549, MCF-7, and LoVo cells; experiment: Antiproliferative activity, values quoted jointly for three tumor lines; type: cell-based, human; details: summary of Table 1; for IC50: Homo sapiens, read-out: IC50 against A549, MCF-7, and LoVo cells (span over the three lines)
From the text: as §1, §2, §3, §4, §5

[5] = test system: all cells used, both cancerous and normal; experiment: Antiproliferative activity, values quoted jointly for all cell lines tested; type: cell-based
From the text: as §1, with “Poland. […]” for “Poland.”
After 72 h of incubation with the tested compounds, the cells were fixed in situ by gently adding cold 50% trichloroacetic acid (TCA) (POCh, Poland) and were incubated at room temperature for 1 h. […] Absorbance of each solution was read at Synergy H4 Hybrid Multi-Mode Microplate Reader (BioTek Instruments) at the 540 nm wavelength.
IC50 values were calculated in Excel sheet using formulas adapted by Mateusz Psurski fromCheburator 0.4, Dmitry Nevozhay software (version 1.2.0 software by Dmitry Nevozhay, 2004–2014, http://www.cheburator.nevozhay.com, freely available) for each experiment.[58] […]

A549 [6] = test system: A549; design: method as in PMID 32295119; details: amide directly on C7; cited from earlier work
MCF-7 [7] = test system: MCF-7; design: method as in PMID 32295119; details: amide directly on C7; cited from earlier work
LoVo [8] = test system: LoVo; design: method as in PMID 32295119; details: cited from earlier work
A549 and MCF7 cells = test system: A549 and MCF7 cells; design: method as in PMID 32295119; details: read-out: IC50 A549 and MCF7 of 7-amide (span); amide directly on C7; cited from earlier work
[9] = test system: human colon adenocarcinoma cell lines; details: cited from earlier work
[10] = Homo sapiens, A549, 72 h, read-out: A549 IC50 (nM), 72 h exposure, SRB, mean ± SD
[11] = Homo sapiens, LoVo/DX, 72 h, read-out: LoVo/DX IC50 (nM), 72 h exposure, SRB, mean ± SD
[12] = read-out: LoVo/DX IC50, 72 h exposure, SRB, mean ± SD

Row | Structure (SMILES) | IC50 (A549 [1]; [10]) [nM] | A549 SI (A549 [1]) | IC50 (LoVo/DX; [11]) [nM] | LoVo/DX RI (LoVo/DX) | LoVo/DX SI (LoVo/DX) | IC50 (LoVo [2]) [nM] | LoVo SI (LoVo [2]) | IC50 (MCF-7 [3]) [nM] | MCF-7 SI (MCF-7 [3]) | IC50 (BALB/3T3) [µM] | IC50 [4] [µM] | other results
1 | CNc1ccc2c(cc1=O)[C@@H](n1cc(C(=O)OCc3ccc(F)cc3)nn1)CCc1cc(OC)c(OC)c(OC)c1-2 [Compound 21] | 21 ± 7.7 | 1.2 | 530 ± 110 | 25 | 0.1 | 21 ± 6.4 | 1.2 | 21 ± 8 | 1.2 | 0.025 ± 0.0056 | 0.01 to 0.025 | 
2 | CNc1ccc2c(cc1=O)[C@@H](n1cc(CNC(=O)Oc3ccccc3)nn1)CCc1cc(OC)c(OC)c(OC)c1-2 [Compound 43] | 4.1 ± 0.6 | 2.7 | 920 ± 150 | 200 | <0.1 | 4.7 ± 1.1 | 2.3 | 2.8 ± 1.2 | 3.9 | 0.011 ± 0.0004 |  | SI for A549, MCF-7, and LoVo cells (span) [4]: 2.1–3.9
3 | CNc1ccc2c(cc1=O)[C@@H](n1cc(CNC(=O)c3ccccc3Cl)nn1)CCc1cc(OC)c(OC)c(OC)c1-2 [Compound 35] | 5.7 ± 2 | 2.1 | ≤ 1000 | 160 | <0.1 | 6.3 ± 3.1 | 1.9 | 3.8 ± 0.4 | 3.2 | 0.012 ± 0.0029 | 0.0027 to 0.0063 | IC50 (LoVo/DX; [12]): 1000 ± 97 nM
4 | CNc1ccc2c(cc1=O)[C@@H](n1cc(C(=O)OC)nn1)CCc1cc(OC)c(OC)c(OC)c1-2 [Compound 18] | 13 ± 2.3 | 1.5 | 280 ± 77 | 23 | 0.1 | 12 ± 4.3 | 1.7 | 12 ± 2.7 | 1.7 | 0.02 ± 0.013 | 0.01 to 0.025 | 
5 | CNc1ccc2c(cc1=O)[C@@H](N=[N+]=[N-])CCc1cc(OC)c(OC)c(OC)c1-2 [Compound 4, 7-azido-10-N-methylaminocolchicine] | 1.4 ± 0.5 | 1.5 | 1.7 ± 0.6 | 1.5 | 1.2 | 1.1 ± 0.5 | 1.9 | 1.5 ± 0.3 | 1.4 | 0.0021 ± 0.0012 |  | SI (selectivity coefficients, all cancer lines) [5]: < 2; IC50 ([5]; cancerous and normal lines, read-out: IC50 against all cells used (span)): 0.0011 to 0.0021 µM
6 | CCCCCCCCCCCCCCCC(=O)N[C@H]1CCc2cc(OC)c(OC)c(OC)c2-c2ccc(NC)c(=O)cc21 [7-palmitamide] |  |  |  |  |  |  |  |  |  |  |  | SI A549 of 7-amide (A549 [6]): 0.9; SI MCF7 of 7-amide (MCF-7 [7]): 1.2; SI LoVo of 7-amide (LoVo [8]; amide directly on C7): 8.8; IC50 (LoVo [8]; read-out: IC50 LoVo of 7-amide, amide directly on C7 of 10-N-methylaminocolchicine): 0.062 µM; IC50 (A549 and MCF7 cells): 0.46 to 0.62 µM
7 | CNc1ccc2c(cc1=O)[C@@H](n1cc(CNC(=O)OCC(C)C)nn1)CCc1cc(OC)c(OC)c(OC)c1-2 [Compound 40] | 1.2 to 1.9 | 3.3 | 310 ± 61 | 180 | <0.1 | 1.7 ± 0.2 | 2.3 | 1.2 ± 0.3 | 3.3 | 0.0039 ± 0.0002 | 0.0012 to 0.0017 | IC50 (A549 [1]; read-out: A549 IC50, 72 h exposure, SRB, mean ± SD): 1.2 ± 0.1 nM; SI for A549, MCF-7, and LoVo cells (span) [4]: 2.1–3.9
8 | CNc1ccc2c(cc1=O)[C@@H](n1cc(CNC(=O)C(Cl)Cl)nn1)CCc1cc(OC)c(OC)c(OC)c1-2 [Compound 31] | 3.3 ± 1.1 | 3.0 | ≤ 1000 | 270 | <0.1 | 3.1 ± 1.1 | 3.2 | 3 ± 1.5 | 3.3 | 0.0099 ± 0.003 | 0.0027 to 0.0063 | IC50 (LoVo/DX; [12]): 830 ± 220 nM
9 | C=CCOC(=O)NCc1cn([C@H]2CCc3cc(OC)c(OC)c(OC)c3-c3ccc(NC)c(=O)cc32)nn1 [Compound 39] | 3.3 ± 0.5 | 2.8 | 440 ± 64 | 100 | <0.1 | 4.3 ± 0.6 | 2.1 | 2.6 ± 0.5 | 3.5 | 0.0091 ± 0.0026 |  | SI for A549, MCF-7, and LoVo cells (span) [4]: 2.1–3.9
10 | CCOC(=O)c1cn([C@H]2CCc3cc(OC)c(OC)c(OC)c3-c3ccc(NC)c(=O)cc32)nn1 [Compound 19] | 17 ± 0.8 | 1.4 | 220 ± 23 | 17 | 0.1 | 13 ± 3.5 | 1.8 | 11 ± 3.7 |  | 0.024 ± 0.011 | 0.01 to 0.025 | 
11 | CNc1ccc2c(cc1=O)C(NCc1ccccc1Cl)CCc1cc(OC)c(OC)c(OC)c1-2 (centres unmarked) [7-N-(2-chlorobenzyl)-10-methylaminocolchcine] |  |  |  |  |  |  |  |  |  |  |  | calculated selectivity coefficients [9]: around 90
12 | CNc1ccc2c(cc1=O)[C@@H](n1cc(CNC(=O)CCCCCl)nn1)CCc1cc(OC)c(OC)c(OC)c1-2 [Compound 32] | 4.4 ± 1.3 | 5.0 | 2800 ± 200 | 560 | <0.1 | 5 ± 0.4 | 4.4 | 2.7 ± 1.1 | 8.1 | 0.022 ± 0.0056 | 0.0027 to 0.0063 | 
13 | CNc1ccc2c(cc1=O)[C@@H](n1cc(CN)nn1)CCc1cc(OC)c(OC)c(OC)c1-2 [Compound 8] | 70 ± 23 | 5.7 | 12000 ± 2400 | 86 | <0.1 | 140 ± 56 | 2.9 | 34 ± 16 | 11.8 | 0.4 ± 0.037 | 0.03 to 0.14 | 
